Experimental data taken from patent publication US20250197374A1, “WEE1 DEGRADING COMPOUNDS AND USES THEREOF” (BRISTOL-MYERS SQUIBB COMPANY, priority 2023, published 2025).

Legend:
Format in all cases: cell-based
WEE1 = molecular target: T1, WEE1 (Homo sapiens, UniProt P30291+Q96SW2); experiment: WEE1-ePL degradation assay (293T-LentiX, InCELL Hunter luminescence, 4 hr); details: for DC50: LentiX-HEK293T cells expressing WEE1-ePL, 4 hr incubation, read-out: 293T-LentiX WEE1-ePL Degradation 4 hr EC50; for 293T-LentiX WEE1-ePL Degradation 4 hr YMin (%): lower limit of fit, % of DMSO control signal remaining
T1 construct: C-terminal ePL-tagged (DiscoverX, Fremont, CA) full-length WEE1 expression construct; expressed in transfected cells; host or cells: LentiX-HEK293T (Invitrogen), lentivirally transduced; the cells also over-express GSPT1-GN
Procedure, shortened: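 LentiX-HEK293T cells expressing C-terminally ePL-tagged full-length WEE1 plus non-degradable GSPT1-GN (G575N, N-terminal 158 aa truncated). Treated 4 h at 37 °C with a 10-point, 3-fold series from 1 or 10 µM, then read by InCELL Hunter luminescence. EC50 from four-parameter logistic fit, Ymax set by DMSO control.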

MKN45 cells = experiment: MKN45 cell proliferation assay (Cell-Titer-Glo, 120 hr); details: for EC50: Homo sapiens, MKN-45, 120 h, read-out: MKN45 Cell Prolif. 120 hr EC50; for MKN45 Cell Prolif. 120 hr YMin (%): minimal percent of DMSO control observed
Procedure, shortened: (§1)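 MKN45 (400/well) and MDA-MB-231 (800/well) cells in RPMI with 10% FBS were exposed to 10-point half-log doses from 1 or 10 uM (0.1% DMSO) for 120 h at 37 °C. Viability was read by CellTiter-Glo luminescence. EC50 came from blank-subtracted, %DMSO four-parameter fits, with Ymin-obs as the lowest %DMSO observed.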

MDA-MB-231 cells = experiment: MDA-MB-231 cell proliferation assay (Cell-Titer-Glo, 120 hr); details: for EC50: Homo sapiens, MDA-MB-231, 120 h, read-out: MDA-MB 231 Cell Prolif. 120 hr EC50; for MDA-MB 231 Cell Prolif. 120 hr YMin (%): minimal percent of DMSO control observed
Procedure, shortened: as §1

T1 sequence (P30291 whole entry): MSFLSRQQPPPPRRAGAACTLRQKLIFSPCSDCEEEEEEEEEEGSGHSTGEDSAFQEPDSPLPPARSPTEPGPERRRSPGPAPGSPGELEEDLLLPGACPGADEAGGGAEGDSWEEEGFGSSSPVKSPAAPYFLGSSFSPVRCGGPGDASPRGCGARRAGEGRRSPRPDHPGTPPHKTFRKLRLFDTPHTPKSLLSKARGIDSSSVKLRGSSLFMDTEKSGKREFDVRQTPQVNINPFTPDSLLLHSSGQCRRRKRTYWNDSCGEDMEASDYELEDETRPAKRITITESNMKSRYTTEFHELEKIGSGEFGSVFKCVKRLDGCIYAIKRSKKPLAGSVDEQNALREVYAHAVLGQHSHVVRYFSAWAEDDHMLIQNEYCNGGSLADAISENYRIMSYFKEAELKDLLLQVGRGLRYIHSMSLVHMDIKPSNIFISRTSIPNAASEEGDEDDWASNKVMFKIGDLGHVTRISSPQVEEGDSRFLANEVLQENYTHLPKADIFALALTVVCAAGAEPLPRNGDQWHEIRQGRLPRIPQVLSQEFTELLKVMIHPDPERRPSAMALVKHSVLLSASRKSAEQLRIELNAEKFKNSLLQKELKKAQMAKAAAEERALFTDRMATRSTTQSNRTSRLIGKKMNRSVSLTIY
T1 sequence (Q96SW2 whole entry): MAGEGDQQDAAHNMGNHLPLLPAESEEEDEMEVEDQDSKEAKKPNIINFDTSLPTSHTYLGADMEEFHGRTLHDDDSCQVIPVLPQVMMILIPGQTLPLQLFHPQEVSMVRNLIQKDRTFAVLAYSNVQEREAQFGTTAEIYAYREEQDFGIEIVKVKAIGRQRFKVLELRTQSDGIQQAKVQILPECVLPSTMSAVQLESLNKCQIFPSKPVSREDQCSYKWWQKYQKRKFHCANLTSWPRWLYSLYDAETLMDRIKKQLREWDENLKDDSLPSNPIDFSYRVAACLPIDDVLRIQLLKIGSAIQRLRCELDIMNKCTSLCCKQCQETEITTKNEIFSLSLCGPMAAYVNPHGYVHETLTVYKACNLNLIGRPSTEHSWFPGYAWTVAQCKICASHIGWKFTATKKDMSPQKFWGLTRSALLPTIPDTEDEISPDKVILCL
T1 sequence (Q16531 whole entry partner): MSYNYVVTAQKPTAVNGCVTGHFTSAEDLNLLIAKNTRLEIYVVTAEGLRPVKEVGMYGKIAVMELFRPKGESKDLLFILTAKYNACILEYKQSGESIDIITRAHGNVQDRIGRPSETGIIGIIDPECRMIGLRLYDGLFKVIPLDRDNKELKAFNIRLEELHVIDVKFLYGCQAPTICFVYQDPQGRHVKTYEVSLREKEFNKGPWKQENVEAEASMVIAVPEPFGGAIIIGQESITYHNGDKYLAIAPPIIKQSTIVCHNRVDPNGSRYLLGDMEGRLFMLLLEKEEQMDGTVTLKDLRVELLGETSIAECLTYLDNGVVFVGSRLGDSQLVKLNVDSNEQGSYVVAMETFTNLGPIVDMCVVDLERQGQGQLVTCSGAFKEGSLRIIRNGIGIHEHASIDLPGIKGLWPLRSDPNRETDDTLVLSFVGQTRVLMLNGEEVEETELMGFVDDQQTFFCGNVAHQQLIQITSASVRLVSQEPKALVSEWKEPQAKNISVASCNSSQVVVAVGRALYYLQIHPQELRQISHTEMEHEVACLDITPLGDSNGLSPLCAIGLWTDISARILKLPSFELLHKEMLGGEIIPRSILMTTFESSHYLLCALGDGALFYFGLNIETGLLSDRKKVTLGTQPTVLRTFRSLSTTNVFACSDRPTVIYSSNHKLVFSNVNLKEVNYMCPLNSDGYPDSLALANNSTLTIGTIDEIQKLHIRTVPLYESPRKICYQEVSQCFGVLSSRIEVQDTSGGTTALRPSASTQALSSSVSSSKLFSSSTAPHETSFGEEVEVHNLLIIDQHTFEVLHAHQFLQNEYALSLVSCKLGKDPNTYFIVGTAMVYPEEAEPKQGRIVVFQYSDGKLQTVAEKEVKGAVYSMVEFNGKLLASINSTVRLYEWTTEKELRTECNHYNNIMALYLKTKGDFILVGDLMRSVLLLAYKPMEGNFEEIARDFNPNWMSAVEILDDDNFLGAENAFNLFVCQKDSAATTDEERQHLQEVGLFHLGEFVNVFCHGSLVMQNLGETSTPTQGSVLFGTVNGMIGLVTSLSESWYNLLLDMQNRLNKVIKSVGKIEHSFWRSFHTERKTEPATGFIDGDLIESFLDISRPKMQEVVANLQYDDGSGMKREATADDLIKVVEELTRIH

| Compound | DC50 (WEE1) [nM] | 293T-LentiX WEE1-ePL Degradation 4 hr YMin (%) (WEE1) | EC50 (MKN45 cells) [nM] | MKN45 Cell Prolif. 120 hr YMin (%) (MKN45 cells) | EC50 (MDA-MB-231 cells) [nM] | MDA-MB 231 Cell Prolif. 120 hr YMin (%) (MDA-MB-231 cells) |
| --- | --- | --- | --- | --- | --- | --- |
| COC[C@@H]1CN(Cc2cc(F)c3nc(C4CCC(O)CC4)ncc3c2)C[C@H]1Oc1ccc2c(c1)CN([C@H]1CCC(=O)NC1=O)C2=O (relative stereo) [Example 50, rel-(S)-3-(5-(((3S,4S)-1-((8-fluoro-2-(4-hydroxycyclohexyl)quinazolin-6-yl)methyl)-4-(methoxymethyl)pyrrolidin-3-yl)oxy)-1-oxoisoindolin-2-yl)piperidine-2,6-dione] | 3 | 19.8 | 7 | 8.7 | 17 | 19.3 |
| COC[C@@H]1CN(Cc2ccc3c(ccn3C(=O)C3CCOCC3)c2)C[C@H]1Oc1ccc2c(c1)CN([C@H]1CCC(=O)NC1=O)C2=O [Example 25, (3S)-3-(5-{[(3S,4S)-4-(methoxymethyl)-1-{[1-(oxane-4-carbonyl)-1H-indol-5-yl]methyl}pyrrolidin-3-yl]oxy}-1-oxo-2,3-dihydro-1H-isoindol-2-yl)piperidine-2,6-dione] | 2 | 39.0 | 35 | 25.4 | 128 | 80.7 |
| CN1CC[C@]2(C[C@@H](c3ccc4cc(CN5CC[C@H](Oc6ccc7c(c6)CN([C@H]6CCC(=O)NC6=O)C7=O)C5)ccc4n3)CO2)C1 (single isomer, unassigned) [Example 4] | 14 | 30.9 | 23 | 12.6 | 146 | 61.3 |
| COC[C@@H]1CN(Cc2cc3ccc(C(=O)N(C)C)cc3cn2)C[C@H]1Oc1ccc2c(c1)CN([C@H]1CCC(=O)NC1=O)C2=O [Example 115, 3-{[(3S,4S)-3-({2-[(3S)-2,6-dioxopiperidin-3-yl]-1-oxo-2,3-dihydro-1H-isoindol-5-yl}oxy)-4-(methoxymethyl)pyrrolidin-1-yl]methyl}-N,N-dimethyliso-quinoline-7-carboxamide] | 6 | 21.5 | 9 | 9.4 | 213 | 41.5 |
| COC[C@@H]1CN(Cc2cc(F)c3nc(C4CC(C)(C)OC(C)(C)C4)ccc3c2)C[C@H]1Oc1ccc2c(c1)CN([C@H]1CCC(=O)NC1=O)C2=O [Example 53, (3S)-3-(5-{[(3S,4S)-1-{[8-fluoro-2-(2,2,6,6-tetramethyloxan-4-yl)quinolin-6-yl]methyl}-4-(methoxymethyl)pyrrolidin-3-yl]oxy}-1-oxo-2,3-dihydro-1H-isoindol-2-yl)piperidine-2,6-dione] |  | 27.9 |  | 10.5 | 8 | 13.4 |
| O=C1CC[C@H](N2Cc3cc(O[C@@H]4CN(Cc5ccc6nc(N7C[C@H]8CCO[C@H]8C7)ccc6c5)CC4(F)F)ccc3C2=O)C(=O)N1 (single isomer, unassigned) [Example 6, (S)-3-(5-(((R)-4,4-difluoro-1-((2-((3aR*,6aR*)-hexahydro-5H-furo[2,3-c]pyrrol-5-yl)quinolin-6-yl)methyl)pyrrolidin-3-yl)oxy)-1-oxoisoindolin-2-yl)piperidine-2,6-dione] | 2 | 27.4 | 5 | 11.8 | 63 | 62.4 |
| COC[C@@H]1CN(Cc2ccc3nc(N4CCN(C(C)=O)C5(CC5)C4)ncc3c2)C[C@H]1Oc1ccc2c(c1)CN([C@H]1CCC(=O)NC1=O)C2=O [Example 94, (3S)-3-(5-{[(3S,4S)-1-[(2-{4-acetyl-4,7-diazaspiro[2.5]octan-7-yl}quinazolin-6-yl)methyl]-4-(methoxymethyl)pyrrolidin-3-yl]oxy}-1-oxo-2,3-dihydro-1H-isoindol-2-yl)piperidine-2,6-dione] | 1 | 26.4 | 2 | 8.5 | 16 | 16.0 |
| COC[C@@H]1CN(Cc2cc(F)c3nc(N4CCCC4=O)ccc3c2)C[C@H]1Oc1ccc2c(c1)CN([C@H]1CCC(=O)NC1=O)C2=O [Example 59, (3S)-3-(5-{[(3S,4S)-1-{[8-fluoro-2-(2-oxopyrrolidin-1-yl)quinolin-6-yl]methyl}-4-(methoxymethyl)pyrrolidin-3-yl]oxy}-1-oxo-2,3-dihydro-1H-isoindol-2-yl)piperidine-2,6-dione] | 1 | 29.1 | 1 | 10.7 | 61 | 12.1 |
| COC[C@@H]1CN(Cc2cc(F)c3nc(C4CCC(C(C)(C)O)CC4)ccc3c2)C[C@H]1Oc1ccc2c(c1)CN([C@H]1CCC(=O)NC1=O)C2=O (relative stereo) [Example 57, rel-(S)-3-(5-(((3S,4S)-1-((8-fluoro-2-(4-(2-hydroxypropan-2-yl)cyclohexyl)quinolin-6-yl)methyl)-4-(methoxymethyl)pyrrolidin-3-yl)oxy)-1-oxoisoindolin-2-yl)piperidine-2,6-dione] |  | 30.3 |  | 8.0 | 11 | 13.2 |
| O=C1CC[C@H](N2Cc3cc(O[C@@H]4CN(Cc5cc(F)c6nc(N7C[C@H]8CCO[C@H]8C7)ccc6c5)CC4(F)F)ccc3C2=O)C(=O)N1 (single isomer, unassigned) [Example 14, (S)-3-(5-(((R)-4,4-difluoro-1-((8-fluoro-2-((3aR*,6aR*)-hexahydro-5H-furo[2,3-c]pyrrol-5-yl)quinolin-6-yl)methyl)pyrrolidin-3-yl)oxy)-1-oxoisoindolin-2-yl)piperidine-2,6-dione] | 3 | 31.8 | 6 | 10.2 | 63 | 34.4 |
| CC(C)C[C@@H]1CN(Cc2cc(F)c3nc(C4CCOCC4)ccc3c2)C[C@H]1Oc1ccc2c(c1)CN([C@H]1CCC(=O)NC1=O)C2=O (relative stereo) [Example 130, (3S)-3-(5-{[(3S*,4R*)-1-{[8-fluoro-2-(oxan-4-yl)quinolin-6-yl]methyl}-4-(2-methylpropyl)pyrrolidin-3-yl]oxy}-1-oxo-2,3-dihydro-1H-isoindol-2-yl)piperidine-2,6-dione] | 6 | 78.0 | 1 | 94.4 | 5960 | 84.1 |
| COC[C@@H]1CN(Cc2cc(F)c3nc(C4CCCCO4)ncc3c2)C[C@H]1Oc1ccc2c(c1)CN([C@H]1CCC(=O)NC1=O)C2=O (relative stereo) [Example 96, rel-(3S)-3-(5-{[(3S,4S)-1-{[8-fluoro-2-(oxan-2-yl)quinazolin-6-yl]methyl}-4-(methoxymethyl)pyrrolidin-3-yl]oxy}-1-oxo-2,3-dihydro-1H-isoindol-2-yl)piperidine-2,6-dione] | 7 | 29.4 | 9 | 11.4 | 123 | 28.4 |
| COC[C@@H]1CN(Cc2cc(F)c3nc(COC4CCOCC4)ccc3c2)C[C@H]1Oc1ccc2c(c1)CN([C@H]1CCC(=O)NC1=O)C2=O [Example 33, (3S)-3-(5-{[(3S,4S)-1-({8-fluoro-2-[(oxan-4-yloxy)methyl]quinolin-6-yl}methyl)-4-(methoxymethyl)pyrrolidin-3-yl]oxy}-1-oxo-2,3-dihydro-1H-isoindol-2-yl)piperidine-2,6-dione] | 1 | 29.3 | 1 | 9.7 | 28 | 28.6 |
| COC[C@@H]1CN(Cc2cc(F)c3nc(N4CCC45CCOCC5)ncc3c2)C[C@H]1Oc1ccc2c(c1)CN([C@H]1CCC(=O)NC1=O)C2=O [Example 73, (3S)-3-(5-{[(3S,4S)-1-[(8-fluoro-2-{7-oxa-1-azaspiro[3.5]nonan-1-yl}quinazolin-6-yl)methyl]-4-(methoxymethyl)pyrrolidin-3-yl]oxy}-1-oxo-2,3-dihydro-1H-isoindol-2-yl)piperidine-2,6-dione] | 1 | 28.9 | 3 | 9.4 | 41 | 34.0 |
